For data set [1] the following is noted: mouse, in vivo. The source says: In particular, a maximum tolerated dose of the compound 36 after repeated administration for 14 days is more than 2.7 times that of the compound 62, especially a safety window of the dose is more than 230 times that of the equivalent dose, so that the compound has high safety.
For data set [2], the target named is T1, mineralocorticoid receptor (MR) (Homo sapiens, UniProt P08235).
T1 construct: expressed in transfected cells
T1 sequence (P08235 726-964 limits assumed): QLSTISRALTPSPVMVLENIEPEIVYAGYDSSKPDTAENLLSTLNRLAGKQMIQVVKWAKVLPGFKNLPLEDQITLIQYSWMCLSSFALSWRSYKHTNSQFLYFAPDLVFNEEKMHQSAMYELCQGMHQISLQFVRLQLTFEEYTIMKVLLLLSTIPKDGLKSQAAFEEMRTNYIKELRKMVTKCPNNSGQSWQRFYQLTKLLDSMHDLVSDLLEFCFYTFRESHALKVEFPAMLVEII
Description: MR Gal4-LBD luciferase reporter gene assay in HEK293T cells (antagonism of 0.8 nM aldosterone). In kind it is cell-based. The source says:
By the characteristic of chemiluminescence reaction produced by combination of luciferase and substrate, a Gal4 DNA binding domain (DBD) fused plasmid containing a mineralocorticoid receptor (MR) ligand binding domain (LBD) and a firefly luciferase reporter gene plasmid under the control of Gal4 UAS (upstream activation sequence) were transfected into human embryonic kidney cells (HEK293). Changes of […] were judged by a level of firefly luciferase activity.
All compounds were dissolved in DMSO to prepare a 25 mM stock solution, and stored in a refrigerator at −20° C.
• 1) A compound to be tested was subjected to 3-times gradient dilution with the DMSO, with 10 concentration gradients and an initial concentration of 10 mM. • 2) A positive compound (Finerenone) was subjected to 3-times gradient dilution with the DMSO, with 10 concentration gradients and an initial concentration of 1 mM. • 3) 1000× positive control (1 mM, Finerenone) and 1000× negative control (100% DMSO) were prepared. • 4) A compound plate was sealed and shaken for 5 minutes.
• 5) All cells were cultured by ATCC standard operation, and HEK293T was experimented in an exponential growth phase. • 6) A culture medium supernatant was gently discarded. The cells were washed with PBS twice.
(3) The cells were digested with pancreatin digestive juice, the digestion was stopped with a complete culture solution, and then the cells were collected and counted.
(4) 6×10^6 HEK293T cells were inoculated into a 100 mm cell culture dish.
(5) The culture dish inoculated with the cells was cultured in a 5% CO2 incubator at 37° C. for 16 hours overnight.
• 1) Lipofectamine® 3000&P3000 transfection reagents were placed at room temperature. • 2) The Lipofectamine® 3000 reagent was added into an Opti-MEM™ culture medium, and meanwhile, the P3000, the plasmid and the Opti-MEM™ culture medium were added into another tube, taking care not to touch the tube wall. • 3) The mixture was mixed evenly by a pipette, and allowed to stand at room temperature for 5 minutes. • 4) The plasmid was added into the diluted transfection reagent, mixed evenly by a pipette, and allowed to stand at room temperature for 20 minutes. • 5) The transfection reagent mixed with the plasmid was added into a […] cell culture dish. • 6) The culture dish was cultured in a 5% CO2 incubator at 37° C. for 5 hours to 6 hours.
• 1) 25 nL of diluted compound was transferred to a cell culture plate with Echo655. • 2) The cells (referring to step 1.3) were inoculated into a 384 cell culture plate, with 17,000 cells, 25 μL of phenol red-free DMEM culture medium containing 5% CFBS and 0.8 nM Aldosteron per well.
(3) The cell culture plate was cultured in a 5% CO2 incubator at 37° C. for 18 hours to 20 hours overnight.
• 1) A Britelite plus detection reagent was placed at room temperature. 2) The 384 cell plate was placed at room temperature. • 3) 25 μL of Britelite plus detection reagent was added into each well of the cell culture plate. • 4) A luminescence was detected with Envision.
• 1) a firefly luciferase signal was obtained by reading the Luminescence to calculate an inhibition rate; • 2) % inhibition rate=100−[(RLU compound−avgRLU positive control)/(RLU negative control−avgRLU positive control)×100%, wherein the avgRLU positive control was an average value of Luminescences of all positive control wells in the whole plate; the avgRLU negative control was an average value of Luminescences of all negative control wells in the whole plate; and the RLU compound was Luminescence values of compounds to be tested with different concentrations; and • 3) IC50 of the compound was calculated by Graphpad8.0 Drawing software.
Background: A reporter such as luciferase makes a cellular process visible.

In data set [3] the test system is diabetic nephropathy mouse model. Nature of the data set: Pharmacodynamic effects on diabetic nephropathy mouse model. The class given is in vivo. To be noted: KK-Ay mice. The method, then:
The pharmacodynamic effects of the compounds 36 and 62 on the diabetic nephropathy mouse model were evaluated.
• Strain: C57BL/6 mice, and KK-Ay mice • Weeks of age: the animals were raised to 6 weeks to 8 weeks of age, and the experiment was started when the animals were 7 weeks to 9 weeks of age • Sex: male • Weight: C57BL/6 mice: 21 g to 23 g, and KK-Ay mice: 25 g to 30 g • Number: 72 experimental animals
On the day of administration, the animals were randomly divided into 9 groups according to their weights, comprising a model group (KK-Ay+solvent), a Finerenone group (KK-Ay+Finerenone: 3 mg/kg), a low-dose compound 62 group (KK-Ay+compound 62: 1 mg/kg), a middle-dose compound 62 group (KK-Ay+compound 62: 3 mg/kg) and high-dose compound 62 group (KK-Ay+compound 62: 10 mg/kg), a low-dose compound 36 group (KK-Ay+compound 36: 1 mg/kg), a middle-dose compound 36 group (KK-Ay+compound 36: 3 mg/kg) and a high-dose compound 36 group (KK-Ay+compound 36: 10 mg/kg). Specific grouping and administration schemes referred to Table 70-2.
When the experiment was started, 24-hour urine of the mice was collected by a metabolic cage in 2nd, 4th, 6th and 8th weeks before and after modeling, and microalbumin (MALB) and creatinine (CREA) contents of the urine were detected by CANON TBA-120FR automatic blood biochemistry to calculate (MALB/CREA).
When the experiment was ended, the mice were euthanized, the blood was taken by heart puncture and put into an anticoagulant-free EP tube, allowed to stand at room temperature for 0.5 hour, and then centrifuged at 4° C. and 6000 g for 15 minutes, and the serum was collected and transferred to a new EP tube, and stored in a refrigerator at −80° C. An insulin content of the serum and serum ions were detected by an ELISA method.
After the experiment was ended, the kidneys of all animals were dissected and collected, fixed in formalin, embedded and made into sections for PAS staining and Masson staining, and then quantitatively analyzed.
Experimental results were expressed as “mean value±standard deviation”. The data of each group were statistically analyzed by GraphPad 8.0 software, and p<0.05 was considered to be statistically significant.

Another data set concerns the target CYP3A4 (Homo sapiens, UniProt P08684). Nature of the data set: biochemical. The class given is in vitro ADME.
Setting [4] is: CYP3A4-5M IC50, human CYP3A4, CYP3A4-5M.
[5] abbreviates: CYP3A4-5T IC50, human CYP3A4, CYP3A4-5T.

Chain of CYP3A4 (P08684 2-503 limits assumed): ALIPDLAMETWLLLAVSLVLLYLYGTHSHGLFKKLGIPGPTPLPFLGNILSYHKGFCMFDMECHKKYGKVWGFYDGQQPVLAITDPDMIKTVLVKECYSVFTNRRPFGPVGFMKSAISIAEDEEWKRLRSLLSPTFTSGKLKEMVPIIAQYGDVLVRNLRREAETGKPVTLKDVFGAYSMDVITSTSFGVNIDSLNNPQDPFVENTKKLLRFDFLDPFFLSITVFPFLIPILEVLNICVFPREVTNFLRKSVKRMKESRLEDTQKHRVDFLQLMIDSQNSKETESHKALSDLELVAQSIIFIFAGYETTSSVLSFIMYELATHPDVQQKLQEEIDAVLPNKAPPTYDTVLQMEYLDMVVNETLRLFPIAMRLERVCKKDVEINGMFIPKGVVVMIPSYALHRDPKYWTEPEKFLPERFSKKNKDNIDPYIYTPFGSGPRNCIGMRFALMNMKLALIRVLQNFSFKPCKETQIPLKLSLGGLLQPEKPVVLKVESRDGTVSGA

A word on the IC50: it is the point on the concentration scale where inhibition reaches its midpoint. Turning to `CCOc1ncc(C)c2c1[C@H](c1ccc(C#N)c3c1OCC3)C(C(N)=O)=C(C)N2` [Example 36, (S)-4-(4-cyano-2,3-dihydrobenzofuran-7-yl)-5-ethoxy-2,8-dimethyl-1,4-dihydro-1,6-naphthyridine-3-formamide], in data set [1], the “maximum tolerated dose after repeated administration for 14 days, relative to compound 62” value is “more than 2.7 times that of the compound 62”. In addition, in data set [1] (14 days), the “safety window of the dose relative to the equivalent dose” value is recorded as “more than 230 times that of the equivalent dose”. Besides, the IC50 in data set [2] was 0.0115 µM; against CYP3A4 (setting [4]), 22.9 µM; against CYP3A4 (setting [5]), 15.8 µM. The “diabetic nephropathy and hypertension” value in data set [3] is listed as “improve”. Also, in data set [3], the urinary protein/creatinine ratio result was “significantly reduce”. Further, the urinary sodium excretion entry in data set [3] was “significantly promote”. Further, at CYP3A4, the “inhibitory effect on CYP3A4” value is listed as “small inhibitory effect”.

Regarding `CCOc1ncc(C)c2c1[C@H](c1ccc(C#N)c3c1OCO3)C(C(N)=O)=C(C)N2` [Example 62, (S)-4-(7-cyanobenzo[d][1,3]dioxol-4-yl)-5-ethoxy-2,8-dimethyl-1,4-dihydro-1,6-naphthyridine-3-formamide], the “maximum tolerated dose after repeated administration for 14 days (safety in words)” value in data set [1] was “highly safe”. Moreover, the IC50 came to 0.0148 µM in data set [2], 13.7 µM at CYP3A4 (setting [4]) and 5.35 µM at CYP3A4 (setting [5]). In data set [3], the “diabetic nephropathy and hypertension” value is recorded as “improve”. In addition, in data set [3], the urinary protein/creatinine ratio result is listed as “significantly reduce”. In data set [3], the urinary sodium excretion result is reported as “significantly promote”.
